According to patent US20250163104A1, “MACROCYCLIC IMMUNOMODULATORS” (priority 2021, published 2025):
Where a SMILES comes first, the peptide text is derived from it. Bridges are numbered along the chain shown (N, C = ends). [ ]: non-standard residue; d: D form. The star is where a group is joined. ξ: configuration not given here. Phe(4-NO2) = N[C@@H](Cc1ccc([N+](=O)[O-])cc1)C(=O)O; Phe(4-COOH) = N[C@@H](Cc1ccc(C(=O)O)cc1)C(=O)O; Bip = N[C@@H](Cc1ccc(-c2ccccc2)cc1)C(=O)O; Phe(3-Me) = Cc1cccc(C[C@H](N)C(=O)O)c1; Val(3-OH) = CC(C)(O)[C@H](N)C(=O)O; 4Pal = N[C@@H](Cc1ccncc1)C(=O)O; Cha = N[C@@H](CC1CCCCC1)C(=O)O; Cit = NC(=O)NCCC[C@H](N)C(=O)O; Gly(cPr) = N[C@H](C(=O)O)C1CC1; dCha = N[C@H](CC1CCCCC1)C(=O)O; Carboxymethyl = O=C(O)C*; Nle = CCCC[C@H](N)C(=O)O; Orn = NCCC[C@H](N)C(=O)O; Pra = C#CC[C@H](N)C(=O)O; Dab = NCC[C@H](N)C(=O)O; Nva = CCC[C@H](N)C(=O)O; Dap = NC[C@H](N)C(=O)O; ξA = CC(N)C(=O)O

target: T1, human PD-1 / PD-L1-Ig binding on Jurkat cell line over-expressing human PD-1 (Jurkat-PD-1) (Homo sapiens, UniProt Q15116); assay: Jurkat-PD-1 Cell Binding High-Content Screening Assay (CBA); format: cell-based; details: Jurkat-PD-1 cells, PE-labeled PD-L1-Ig 20 nM final; read-out: Jurkat HPD1_PDL1 IC50
T1 construct: expressed in transfected cells; host or cells: Jurkat
T1 sequence (Q15116 25-288): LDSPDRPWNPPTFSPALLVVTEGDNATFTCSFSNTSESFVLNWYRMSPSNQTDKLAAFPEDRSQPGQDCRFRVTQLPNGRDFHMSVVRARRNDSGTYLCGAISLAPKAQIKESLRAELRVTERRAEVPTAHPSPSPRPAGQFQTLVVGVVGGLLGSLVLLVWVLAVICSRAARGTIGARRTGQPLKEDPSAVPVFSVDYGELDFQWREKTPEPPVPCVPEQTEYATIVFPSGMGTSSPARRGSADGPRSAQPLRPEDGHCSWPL
Outline: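 Binding of fluorescent PD-L1-Ig (phycoerythrin linked via the Ig tag, 20 nM final) to PD-1-overexpressing Jurkat cells was imaged after a 2 h, 37° C compound pretreatment and 1 hour ligand incubation.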

Row | IC50 | Structure (SMILES)
1 | 5.7 nM | CC(C)[C@@H]1NC(=O)[C@H](Cc2c[nH]c3ccccc23)NC(=O)[C@H](CC(=O)O)NC(=O)[C@H](Cc2ccc(C(=O)O)cc2)NC(=O)[C@H](Cc2ccc(OCC(=O)O)cc2)NC(=O)CSC[C@@H](C(=O)N[C@@H](C)C(N)=O)NC(=O)[C@H]([C@@H](C)O)NC(=O)[C@H](C(C)C)NC(=O)[C@H](CC2CCCCC2)NC(=O)[C@H](CCN)NC(=O)[C@@H](CC2CCCCC2)NC(=O)[C@H](CCCN)NC(=O)[C@H](CCC(=O)O)NC(=O)[C@H](Cc2ccc(-c3ccccc3)cc2)NC1=O [Compound 1444] ({CH2CO}-Y(Carboxymethyl)[Phe(4-COOH)]DWV[Bip]E[Orn][dCha][Dab][Cha]VTCA-NH2; thioether N-14)
2 | 38 nM | CC(C)C[C@@H]1NC(=O)[C@H](Cc2c[nH]c3ccccc23)NC(=O)[C@H](CC(=O)O)NC(=O)[C@H](Cc2ccncc2)NC(=O)[C@H](Cc2ccc(OCC(=O)O)cc2)NC(=O)CSC[C@@H](C(=O)NCC(N)=O)NC(=O)[C@H](CO)NC(=O)[C@H](C(C)C)NC(=O)[C@H](CC2CCCCC2)NC(=O)[C@H](CC(N)=O)NC(=O)[C@@H](CC(C)C)NC(=O)[C@H](CCCN)NC(=O)[C@H](C(C)C)NC(=O)[C@H](Cc2ccc(-c3ccccc3)cc2)NC1=O [Compound 1338] ({CH2CO}-Y(Carboxymethyl)[4Pal]DWL[Bip]V[Orn][dL]N[Cha]VSCG-NH2; thioether N-14)
3 | 43.3 nM | CC[C@H](C)[C@@H]1NC(=O)[C@H](Cc2ccc(-c3ccccc3)cc2)NC(=O)[C@H](C(C)C)NC(=O)[C@H](Cc2cccc(C)c2)NC(=O)[C@H](CC(=O)O)NC(=O)[C@H](Cc2ccc(C(=O)O)cc2)NC(=O)[C@H](Cc2ccc(OCC(=O)O)cc2)NC(=O)CSC[C@@H](C(N)=O)NC(=O)[C@H]([C@@H](C)O)NC(=O)[C@H](C(C)C)NC(=O)[C@H](CC(C)C)NC(=O)[C@H](CCN)NC(=O)[C@@H](CC(C)C)NC(=O)[C@H](CCCN)NC1=O [Compound 1555] ({CH2CO}-Y(Carboxymethyl)[Phe(4-COOH)]D[Phe(3-Me)]V[Bip]I[Orn][dL][Dab]LVTC-NH2; thioether N-14)
4 | 16.8 nM | CC(C)C[C@H]1NC(=O)[C@H](CCCN)NC(=O)[C@H](CCC(=O)O)NC(=O)[C@H](Cc2ccc(-c3ccccc3)cc2)NC(=O)[C@H](C(C)C)NC(=O)[C@H](Cc2cccc(C(F)(F)F)c2)NC(=O)[C@H](CC(=O)O)NC(=O)[C@H](Cc2ccc(OCC(=O)O)cc2)NC(=O)[C@H](Cc2cccnc2)NC(=O)CSC[C@@H](C(=O)N[C@@H](C)C(N)=O)NC(=O)[C@H]([C@@H](C)O)NC(=O)[C@H](C(C)C)NC(=O)[C@H](CC2CCCCC2)NC(=O)[C@H](CCN)NC1=O [Compound 1502]
5 | 5.1 nM | Cc1cccc(C[C@@H]2NC(=O)[C@H](CC(=O)O)NC(=O)[C@H](Cc3ccc(OCC(=O)O)cc3)NC(=O)[C@H](Cc3ccc(OCC(=O)O)cc3)NC(=O)CSC[C@@H](C(=O)N[C@@H](C)C(N)=O)NC(=O)[C@H]([C@@H](C)O)NC(=O)[C@H](C(C)C)NC(=O)[C@H](CC(C)C)NC(=O)[C@H](CCN)NC(=O)[C@@H](CC(C)C)NC(=O)[C@H](CCCN)NC(=O)[C@H](C(C)C)NC(=O)[C@H](Cc3ccc(-c4ccccc4)cc3)NC(=O)[C@H](C(C)C)NC2=O)c1 [Compound 1220] ({CH2CO}-Y(Carboxymethyl)Y(Carboxymethyl)D[Phe(3-Me)]V[Bip]V[Orn][dL][Dab]LVTCA-NH2; thioether N-14)
6 | 25.7 nM | CC(C)C[C@H]1NC(=O)[C@H](CCCN)NC(=O)[C@H](CCC(=O)O)NC(=O)[C@H](Cc2ccc(-c3ccccc3)cc2)NC(=O)[C@H](C(C)C)NC(=O)[C@H](Cc2c[nH]c3ccccc23)NC(=O)[C@H](CC(=O)O)NC(=O)[C@H](Cc2ccc(OCC(=O)O)cc2)NC(=O)[C@H](CN)NC(=O)CSC[C@@H](C(=O)N[C@@H](C)C(N)=O)NC(=O)[C@H]([C@@H](C)O)NC(=O)[C@H](C(C)C)NC(=O)[C@H](Cc2cscn2)NC(=O)[C@H](CCN)NC1=O [Compound 1510]
7 | 973 nM | C#CC[C@H](NC(=O)C(C)NC(=O)[C@@H]1CSCC(=O)N[C@@H](Cc2ccncc2)C(=O)N[C@@H](Cc2ccc(C(=O)O)cc2)C(=O)N[C@@H](CC(=O)O)C(=O)N[C@@H](Cc2cccc(C)c2)C(=O)N[C@@H](Cc2ccc(OCC(=O)O)cc2)C(=O)N[C@@H](Cc2ccc(-c3ccccc3)cc2)C(=O)N[C@@H](Cc2ccc(OCC(=O)O)cc2)C(=O)N[C@@H](CCCN)C(=O)N[C@H](CC(C)C)C(=O)N[C@@H](CCN)C(=O)N[C@@H](CC2CCCCC2)C(=O)N[C@@H](C(C)(C)O)C(=O)N[C@@H](CO)C(=O)N1)C(N)=O (stereo partly drawn) [Compound 2329] ({CH2CO}-[4Pal][Phe(4-COOH)]D[Phe(3-Me)]Y(Carboxymethyl)[Bip]Y(Carboxymethyl)[Orn][dL][Dab][Cha][Val(3-OH)]SC[ξA][Pra]-NH2; thioether N-14)
8 | 18.2 nM | CC(C)C[C@H]1NC(=O)[C@H](CCCN)NC(=O)[C@H](CCCNC(N)=O)NC(=O)[C@H](Cc2ccc(-c3ccccc3)cc2)NC(=O)[C@H](C(C)C)NC(=O)[C@H](Cc2c[nH]c3ccccc23)NC(=O)[C@H](CC(=O)O)NC(=O)[C@H](Cc2ccc([N+](=O)[O-])cc2)NC(=O)[C@H](CN)NC(=O)CSC[C@@H](C(=O)N[C@@H](C)C(N)=O)NC(=O)[C@H]([C@@H](C)O)NC(=O)[C@H](C(C)C)NC(=O)[C@H](CC2CCCCC2)NC(=O)[C@H](CCN)NC1=O [Compound 2110] ({CH2CO}-[Dap][Phe(4-NO2)]DWV[Bip][Cit][Orn][dL][Dab][Cha]VTCA-NH2; thioether N-14)
9 | 40.8 nM | CC(C)C[C@H]1NC(=O)[C@H](CCCN)NC(=O)[C@H](CCC(=O)O)NC(=O)[C@H](Cc2ccc(-c3ccccc3)cc2)NC(=O)[C@H](C(C)C)NC(=O)[C@H](Cc2c[nH]c3ccccc23)NC(=O)[C@H](CC(=O)O)NC(=O)[C@H](Cc2ccc(-c3ccc(C(=O)O)cc3)cc2)NC(=O)[C@H](Cc2ccncc2)NC(=O)CSC[C@@H](C(=O)N[C@@H](C)C(N)=O)NC(=O)[C@H]([C@@H](C)O)NC(=O)[C@H](C(C)C)NC(=O)[C@H](CC2CCCCC2)NC(=O)[C@H](CCN)NC1=O [Compound 2169]
10 | 412 nM | C#CC[C@H](NC(=O)[C@@H]1CSCC(=O)N[C@@H](CCC)C(=O)N[C@@H](Cc2ccc(OCC(=O)O)cc2)C(=O)N[C@@H](CC(=O)O)C(=O)N[C@@H](Cc2cccc(C)c2)C(=O)N[C@@H](Cc2ccc(OCC(=O)O)cc2)C(=O)N[C@@H](Cc2ccc(-c3ccccc3)cc2)C(=O)N[C@@H](Cc2ccc(OCC(=O)O)cc2)C(=O)N[C@@H](CCCC)C(=O)N[C@H](CC(C)C)C(=O)N[C@@H](CCN)C(=O)N[C@@H](CC2CCCCC2)C(=O)N[C@@H](C(C)C)C(=O)N[C@@H](CCC(=O)O)C(=O)N1)C(=O)O [Compound 2703] ({CH2CO}-[Nva]Y(Carboxymethyl)D[Phe(3-Me)]Y(Carboxymethyl)[Bip]Y(Carboxymethyl)[Nle][dL][Dab][Cha]VEC[Pra]-OH; thioether N-14)
11 | 64.7 nM | CCCC[C@@H]1NC(=O)[C@H](CCCNC(=N)N)NC(=O)[C@@H](CC(C)C)NC(=O)[C@H](CCCN)NC(=O)[C@H]([C@@H](C)CC)NC(=O)[C@H](Cc2ccc(-c3ccccc3)cc2)NC(=O)[C@H](C(C)C)NC(=O)[C@H](Cc2c[nH]c3ccccc23)NC(=O)[C@H](CC(=O)O)NC(=O)[C@H](Cc2ccc(O)cc2)NC(=O)[C@H](Cc2ccccc2)NC(=O)CSC[C@@H](C(=O)N[C@@H](C)C(N)=O)NC(=O)[C@H]([C@@H](C)O)NC(=O)[C@H](C(C)C)NC1=O [Compound 1152] ({CH2CO}-FYDWV[Bip]I[Orn][dL]R[Nle]VTCA-NH2; thioether N-14)
12 | 40.2 nM | CC(C)C[C@@H]1NC(=O)[C@H](Cc2c[nH]c3ccccc23)NC(=O)[C@H](CC(=O)O)NC(=O)[C@H](Cc2ccc(O)cc2)NC(=O)[C@H](Cc2ccccc2)NC(=O)CSC[C@@H](C(=O)NCC(N)=O)NC(=O)[C@H]([C@@H](C)O)NC(=O)[C@H](C(C)C)NC(=O)[C@H](CC(C)C)NC(=O)[C@H](CCN)NC(=O)[C@@H](C)NC(=O)[C@H](CN)NC(=O)[C@H](C(C)C)NC(=O)[C@H](Cc2ccc(-c3ccccc3)cc2)NC1=O [Compound 1078] ({CH2CO}-FYDWL[Bip]V[Dap][dA][Dab]LVTCG-NH2; thioether N-14)
13 | 24.9 nM | CC(C)C[C@H]1NC(=O)[C@H](CCCN)NC(=O)[C@H](CCC(=O)O)NC(=O)[C@H](Cc2ccc(-c3ccccc3)cc2)NC(=O)[C@H](C2CC2)NC(=O)[C@H](Cc2c[nH]c3ccccc23)NC(=O)[C@H](CC(=O)O)NC(=O)[C@H](Cc2ccc(OCC(=O)O)cc2)NC(=O)[C@H](CN)NC(=O)CSC[C@@H](C(=O)N[C@@H](C)C(N)=O)NC(=O)[C@H]([C@@H](C)O)NC(=O)[C@H](C(C)C)NC(=O)[C@H](CC2CCCCC2)NC(=O)[C@H](CCN)NC1=O [Compound 1716] ({CH2CO}-[Dap]Y(Carboxymethyl)DW[Gly(cPr)][Bip]E[Orn][dL][Dab][Cha]VTCA-NH2; thioether N-14)
14 | 54.8 nM | CC(C)C[C@H]1NC(=O)[C@H](CCCN)NC(=O)[C@H](C(C)C)NC(=O)[C@H](Cc2ccc(-c3ccccc3)cc2)NC(=O)[C@H](C(C)C)NC(=O)[C@H](Cc2c[nH]c3ccccc23)NC(=O)[C@H](CC(=O)O)NC(=O)[C@H](Cc2ccc(O)cc2)NC(=O)[C@H](CC#N)NC(=O)CSC[C@@H](C(=O)N[C@@H](C)C(N)=O)NC(=O)[C@H](C(C)O)NC(=O)[C@H](C(C)C)NC(=O)[C@H](CC2CCCCC2)NC(=O)[C@H](CCN)NC1=O (stereo partly drawn) [Compound 2526]
15 | 26.2 nM | C#CC[C@H](NC(=O)[C@H](C)NC(=O)[C@@H]1CSCC(=O)N[C@@H](CCN)C(=O)N[C@@H](Cc2ccc(OCC(=O)O)cc2)C(=O)N[C@@H](CC(=O)O)C(=O)N[C@@H](Cc2cccc(C)c2)C(=O)N[C@@H](Cc2ccc(OCC(=O)O)cc2)C(=O)N[C@@H](Cc2ccc(-c3ccccc3)cc2)C(=O)N[C@@H](Cc2ccc(OCC(=O)O)cc2)C(=O)N[C@@H](CCCN)C(=O)N[C@H](CC(C)C)C(=O)N[C@@H](CCN)C(=O)N[C@@H](CC2CCCCC2)C(=O)N[C@@H](C(C)(C)O)C(=O)N[C@@H](CCC)C(=O)N1)C(=O)O [Compound 2697] ({CH2CO}-[Dab]Y(Carboxymethyl)D[Phe(3-Me)]Y(Carboxymethyl)[Bip]Y(Carboxymethyl)[Orn][dL][Dab][Cha][Val(3-OH)][Nva]CA[Pra]-OH; thioether N-14)
